{"source": "ChEMBL document CHEMBL4619804", "about": "“Target-Based Identification and Optimization of 5-Indazol-5-yl Pyridones as Toll-like Receptor 7 and 8 Antagonists Using a Biochemical TLR8 Antagonist Competition Assay” (J Med Chem, 2020)", "key": {"[1]": {"molecular_target": "T1, Toll-like receptor 9 (Mus musculus, UniProt Q9EQU3)", "T1 sequence (Q9EQU3 whole entry)": "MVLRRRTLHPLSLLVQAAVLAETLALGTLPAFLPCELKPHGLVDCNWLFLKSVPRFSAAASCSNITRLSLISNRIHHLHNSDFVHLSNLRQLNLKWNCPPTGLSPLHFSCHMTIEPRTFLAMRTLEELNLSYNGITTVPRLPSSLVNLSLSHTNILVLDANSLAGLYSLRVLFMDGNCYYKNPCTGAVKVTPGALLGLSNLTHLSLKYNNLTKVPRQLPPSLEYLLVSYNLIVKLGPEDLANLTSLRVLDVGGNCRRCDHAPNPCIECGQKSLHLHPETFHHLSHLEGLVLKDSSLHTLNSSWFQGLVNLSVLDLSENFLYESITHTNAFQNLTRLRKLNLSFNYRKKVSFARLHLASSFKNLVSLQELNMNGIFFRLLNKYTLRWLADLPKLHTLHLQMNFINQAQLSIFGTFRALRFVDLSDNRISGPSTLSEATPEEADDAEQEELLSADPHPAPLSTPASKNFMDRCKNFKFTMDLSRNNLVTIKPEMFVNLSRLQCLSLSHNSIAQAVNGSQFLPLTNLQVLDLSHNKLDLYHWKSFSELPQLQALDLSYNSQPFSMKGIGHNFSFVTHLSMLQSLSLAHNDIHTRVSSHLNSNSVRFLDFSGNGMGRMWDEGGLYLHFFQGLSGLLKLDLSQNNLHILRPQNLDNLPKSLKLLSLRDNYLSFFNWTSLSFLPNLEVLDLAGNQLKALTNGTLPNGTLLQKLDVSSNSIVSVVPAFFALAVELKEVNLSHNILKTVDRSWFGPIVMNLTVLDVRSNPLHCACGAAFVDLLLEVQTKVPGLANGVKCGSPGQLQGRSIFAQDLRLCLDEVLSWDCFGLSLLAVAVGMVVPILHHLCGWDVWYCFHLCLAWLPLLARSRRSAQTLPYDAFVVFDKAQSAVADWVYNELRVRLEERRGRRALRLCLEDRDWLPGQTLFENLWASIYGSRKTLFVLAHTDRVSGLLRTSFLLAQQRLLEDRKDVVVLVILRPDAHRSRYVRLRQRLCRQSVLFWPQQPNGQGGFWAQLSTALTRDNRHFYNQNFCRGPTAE", "assay": "Antagonist activity at TLR9 in mouse whole blood inhibition of DOTAP-ODN2216-induced IFNalpha production preincubated for 30 mins followed by DOTAP-ODN2216 addition and measured after 20 hrs by ELISA", "format": "tissue-based"}, "[2]": {"molecular_target": "T2, Toll-like receptor 7 (Mus musculus, UniProt P58681)", "T2 sequence (P58681 whole entry)": "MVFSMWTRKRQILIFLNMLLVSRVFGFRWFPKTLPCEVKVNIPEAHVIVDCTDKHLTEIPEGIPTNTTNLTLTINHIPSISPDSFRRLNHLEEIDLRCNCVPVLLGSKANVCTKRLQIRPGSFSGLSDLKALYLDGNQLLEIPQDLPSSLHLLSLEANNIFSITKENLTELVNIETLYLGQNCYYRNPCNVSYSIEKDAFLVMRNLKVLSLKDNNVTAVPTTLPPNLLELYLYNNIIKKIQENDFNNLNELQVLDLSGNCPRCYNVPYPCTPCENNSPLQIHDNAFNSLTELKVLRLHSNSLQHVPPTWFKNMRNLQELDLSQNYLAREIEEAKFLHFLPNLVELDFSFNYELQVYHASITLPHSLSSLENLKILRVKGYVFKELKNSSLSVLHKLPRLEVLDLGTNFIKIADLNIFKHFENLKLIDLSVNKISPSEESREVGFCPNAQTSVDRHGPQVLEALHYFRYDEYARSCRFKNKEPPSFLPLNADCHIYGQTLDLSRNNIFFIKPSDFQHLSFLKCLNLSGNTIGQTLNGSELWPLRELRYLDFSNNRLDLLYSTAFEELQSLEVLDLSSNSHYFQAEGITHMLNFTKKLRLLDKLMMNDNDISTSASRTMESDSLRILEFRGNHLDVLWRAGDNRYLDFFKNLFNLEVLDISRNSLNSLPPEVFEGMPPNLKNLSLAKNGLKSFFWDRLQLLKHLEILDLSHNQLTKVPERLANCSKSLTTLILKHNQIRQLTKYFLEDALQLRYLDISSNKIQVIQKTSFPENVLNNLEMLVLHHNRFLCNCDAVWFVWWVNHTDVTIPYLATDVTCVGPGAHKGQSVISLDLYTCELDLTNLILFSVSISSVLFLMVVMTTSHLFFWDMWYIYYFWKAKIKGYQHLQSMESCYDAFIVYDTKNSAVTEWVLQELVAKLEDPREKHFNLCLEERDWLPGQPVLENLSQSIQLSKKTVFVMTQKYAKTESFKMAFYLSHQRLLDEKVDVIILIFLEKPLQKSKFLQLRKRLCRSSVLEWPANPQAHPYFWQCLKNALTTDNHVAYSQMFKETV", "assay": "Antagonist activity at TLR7 in mouse whole blood assessed as inhibition of DOTAP-ssRNA40 induced IFNalpha production preincubated for 30 mins followed by ssRNA40 addition measured after 20 hrs by ELISA", "format": "tissue-based"}, "[3]": {"molecular_target": "Toll-like receptor 4 (Homo sapiens, UniProt O00206)", "sequence (O00206 whole entry)": "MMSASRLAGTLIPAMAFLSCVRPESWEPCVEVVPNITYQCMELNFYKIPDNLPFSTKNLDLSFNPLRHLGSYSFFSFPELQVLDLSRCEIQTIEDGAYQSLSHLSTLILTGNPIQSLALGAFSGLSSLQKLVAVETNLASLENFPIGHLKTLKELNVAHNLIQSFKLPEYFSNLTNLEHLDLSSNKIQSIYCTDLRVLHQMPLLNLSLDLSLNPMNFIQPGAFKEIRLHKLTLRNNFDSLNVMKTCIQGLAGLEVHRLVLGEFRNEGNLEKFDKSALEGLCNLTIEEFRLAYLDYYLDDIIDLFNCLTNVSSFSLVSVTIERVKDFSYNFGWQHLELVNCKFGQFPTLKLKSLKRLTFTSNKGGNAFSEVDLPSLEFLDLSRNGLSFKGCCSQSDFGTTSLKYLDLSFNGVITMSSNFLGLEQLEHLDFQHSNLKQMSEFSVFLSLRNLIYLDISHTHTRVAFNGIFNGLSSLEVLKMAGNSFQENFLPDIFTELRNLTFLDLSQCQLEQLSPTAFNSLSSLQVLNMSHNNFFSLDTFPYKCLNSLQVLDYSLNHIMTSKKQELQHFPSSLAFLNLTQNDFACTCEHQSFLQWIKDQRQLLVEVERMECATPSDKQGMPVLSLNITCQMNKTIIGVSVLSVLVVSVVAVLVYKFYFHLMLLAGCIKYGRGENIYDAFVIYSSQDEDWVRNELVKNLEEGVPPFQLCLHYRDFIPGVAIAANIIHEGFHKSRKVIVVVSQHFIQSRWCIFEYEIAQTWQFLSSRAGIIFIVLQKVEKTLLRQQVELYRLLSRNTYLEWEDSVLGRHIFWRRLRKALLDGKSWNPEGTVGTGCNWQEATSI", "assay": "Antagonist activity at TLR4 in human PBMC assessed as inhibition of LPS-induced TNFalpha production preincubated for 30 mins followed by LPS addition and measured after 20 hrs by HTRF assay", "format": "cell-based"}}}
{"smiles": "O=c1ccc(-c2cc(C(F)(F)F)c3nn([C@H]4CCNC[C@@H]4F)cc3c2)c2n1CCC2", "values": [{"measurement": "IC50", "setting": "[1]", "result": "> 10", "unit": "µM"}, {"measurement": "IC50", "setting": "[2]", "result": 0.18, "unit": "µM"}, {"measurement": "IC50", "setting": "[3]", "result": "> 6.5", "unit": "µM"}]}
